Experimental data taken from the CheMixHub viscosity set.

Test: xn = mol fraction of the nth substance listed

C1=C[C@H]2[C@@H](C1)[C@H]1C=C[C@@H]2C1 + CCO
viscosity [mPa·s], 101.2 kPa
Settings | x1 = 0.1001 | x1 = 0.1997 | x1 = 0.2973 | x1 = 0.4003 | x1 = 0.501 | x1 = 0.6023 | x1 = 0.699 | x1 = 0.8013 | x1 = 0.9002
293.15 K | 1.493 | 1.788 | 2.076 | 2.381 | 2.68 | 3.001 | 3.332 | 3.701 | 4.073
303.15 K | 1.232 | 1.449 | 1.657 | 1.879 | 2.098 | 2.339 | 2.595 | 2.879 | 3.161
313.15 K | 1.038 | 1.209 | 1.369 | 1.541 | 1.718 | 1.911 | 2.111 | 2.345 | 2.579

C1COCCO1 + CCO
viscosity [mPa·s]
Settings | 293.15 K | 298.15 K | 303.15 K | 308.15 K
101 kPa, x1 = 0.0584 | – | 0.992 | – | –
101 kPa, x1 = 0.1156 | – | 0.938 | – | –
101 kPa, x1 = 0.1834 | – | 0.884 | – | –
101 kPa, x1 = 0.2678 | – | 0.86 | – | –
101 kPa, x1 = 0.3 | – | 0.9243 | – | –
101 kPa, x1 = 0.3438 | – | 0.849 | – | –
101 kPa, x1 = 0.4473 | – | 0.863 | – | –
101 kPa, x1 = 0.5589 | – | 0.885 | – | –
101 kPa, x1 = 0.689 | – | 0.933 | – | –
101 kPa, x1 = 0.8264 | – | 1.029 | – | –
101 kPa, x2 = 0.1798 | – | 1.027 | 0.9544 | 0.8897
101 kPa, x2 = 0.324 | – | 0.9634 | 0.8928 | 0.8361
101 kPa, x2 = 0.4539 | – | 0.9317 | 0.8654 | 0.8124
101 kPa, x2 = 0.5608 | – | 0.9336 | 0.8661 | 0.8072
101 kPa, x2 = 0.6591 | – | 0.9547 | 0.8825 | 0.8181
101 kPa, x2 = 0.7972 | – | 1.025 | 0.9451 | 0.8639
101 kPa, x2 = 0.8858 | – | 1.102 | 1.008 | 0.919
101 kPa, x2 = 0.9427 | – | 1.179 | 1.068 | 0.9697
101.33 kPa, x1 = 0.0703 | 1.069 | 0.96 | 0.8879 | 0.8147
101.33 kPa, x1 = 0.1455 | 0.9889 | 0.8885 | 0.8285 | 0.7595
101.33 kPa, x1 = 0.2259 | 0.9468 | 0.8529 | 0.7902 | 0.7308
101.33 kPa, x1 = 0.3126 | 0.9216 | 0.8387 | 0.7727 | 0.7174
101.33 kPa, x1 = 0.4045 | 0.9225 | 0.8391 | 0.7751 | 0.7182
101.33 kPa, x1 = 0.5051 | 0.9277 | 0.8469 | 0.7819 | 0.7278
101.33 kPa, x1 = 0.6163 | 0.9582 | 0.8803 | 0.8165 | 0.7622
101.33 kPa, x1 = 0.7297 | 1.029 | 0.9425 | 0.8647 | 0.8101
101.33 kPa, x1 = 0.86 | 1.135 | 1.044 | 0.9699 | 0.8938
101.33 kPa, x2 = 0.2101 | – | – | 0.984 | –
101.33 kPa, x2 = 0.5822 | – | – | 0.825 | –
101.33 kPa, x2 = 0.7056 | – | – | 0.798 | –
101.33 kPa, x2 = 0.9653 | – | – | 0.927 | –

COC(=O)CC(=O)OC + CCO
303.15 K, 101 kPa
Settings | viscosity [mPa·s]
x1 = 0.0532 | 0.972
x1 = 0.1129 | 0.966
x1 = 0.1787 | 0.978
x1 = 0.2533 | 0.998
x1 = 0.337 | 1.037
x1 = 0.4329 | 1.097
x1 = 0.5426 | 1.181
x1 = 0.6705 | 1.314
x1 = 0.8207 | 1.513

OCC(F)(F)F + CCO
viscosity [mPa·s]
Settings | 298.15 K | 303.15 K | 308.15 K | 313.15 K | 318.15 K | 323.15 K
100 kPa, x1 = 0.1081 | 1.09 | 1 | 0.92 | 0.84 | 0.77 | 0.71
100 kPa, x1 = 0.2039 | 1.09 | 0.99 | 0.91 | 0.83 | 0.76 | 0.7
100 kPa, x1 = 0.304 | 1.1 | 0.99 | 0.91 | 0.83 | 0.76 | 0.7
100 kPa, x1 = 0.3989 | 1.12 | 1.01 | 0.92 | 0.84 | 0.77 | 0.7
100 kPa, x1 = 0.508 | 1.16 | 1.05 | 0.95 | 0.86 | 0.79 | 0.72
100 kPa, x1 = 0.601 | 1.22 | 1.1 | 0.99 | 0.9 | 0.82 | 0.75
100 kPa, x1 = 0.7087 | 1.31 | 1.18 | 1.06 | 0.96 | 0.87 | 0.79
100 kPa, x1 = 0.7984 | 1.4 | 1.26 | 1.12 | 1.02 | 0.92 | 0.83
100 kPa, x1 = 0.9032 | 1.56 | 1.38 | 1.23 | 1.11 | 0.99 | 0.9
101 kPa, x1 = 0.01998 | 1.104 | – | – | – | – | –
101 kPa, x1 = 0.0384 | 1.102 | – | – | – | – | –
101 kPa, x1 = 0.05967 | 1.098 | – | – | – | – | –
101 kPa, x1 = 0.1122 | 1.097 | – | – | – | – | –
101 kPa, x1 = 0.1523 | 1.089 | – | – | – | – | –
101 kPa, x1 = 0.2584 | 1.082 | – | – | – | – | –
101 kPa, x1 = 0.3059 | 1.105 | – | – | – | – | –
101 kPa, x1 = 0.5638 | 1.215 | – | – | – | – | –
101 kPa, x1 = 0.8074 | 1.427 | – | – | – | – | –

Brc1ccccc1 + CCOC(C)=O
viscosity [mPa·s], 101 kPa
Settings | 298.15 K | 308.15 K
x2 = 0.0463 | 0.997 | 0.926
x2 = 0.1501 | 0.906 | 0.844
x2 = 0.2468 | 0.829 | 0.775
x2 = 0.3482 | 0.756 | 0.707
x2 = 0.4571 | 0.686 | 0.641
x2 = 0.5073 | 0.656 | 0.612
x2 = 0.5465 | 0.633 | 0.591
x2 = 0.6468 | 0.58 | 0.539
x2 = 0.75 | 0.53 | 0.49
x2 = 0.848 | 0.487 | 0.447
x2 = 0.9469 | 0.448 | 0.407

O=C1CCCO1 + CCOC(C)=O
298.15 K, 101.33 kPa
Settings | viscosity [mPa·s]
x2 = 0.0501 | 1.575
x2 = 0.1023 | 1.453
x2 = 0.1528 | 1.345
x2 = 0.2005 | 1.249
x2 = 0.2542 | 1.152
x2 = 0.3039 | 1.071
x2 = 0.4046 | 0.926
x2 = 0.4546 | 0.864
x2 = 0.5006 | 0.81
x2 = 0.5528 | 0.755
x2 = 0.6019 | 0.707
x2 = 0.6994 | 0.622
x2 = 0.75 | 0.583
x2 = 0.7981 | 0.547
x2 = 0.849 | 0.513
x2 = 0.902 | 0.481
x2 = 0.9504 | 0.45
